From US20050101595A1, “N-containing cycloalkyl-substituted amino-thiazole derivatives and pharmaceutical compositions for inhibiting cell proliferation and methods for their use” (PFIZER INC., priority 2003, published 2005)

How the values were obtained:
[1] = system: HCT-116 cell line; test: Inhibition of cell growth, tetrazolium salt (MTT) assay; type: cell-based; details: HCT-116, Table 4; for HCT-116 % Inhibition at 0.1 μM: 0.1 μM compound; for HCT-116 % Inhibition at 0.25 μM: 0.25 μM compound
Method in brief: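 First, cells were seeded in McCoy's 5A medium and held 4 h. Next, inhibitor concentrations in 0.5% (v/v) DMSO were applied for three to five days at 37° C, 5% CO2. Finally, after 4 h with 0.2 mg/mL MTT and medium removal, solubilized formazan was measured at 540 nm.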

[2] = target: CDK2/Cyclin A (Homo sapiens, UniProt P24941); test: Inhibition of CDK2/Cyclin A Retinoblastoma Kinase Activity; type: biochemical; details: 0.03 μM compound, Table 4
Method in brief: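 Baculovirus-expressed CDK2 complexed with proteolyzed cyclin A (10 or 19 nM), Rb fragment substrate, 25 μM [32P/33P]ATP, HEPES pH 7.4, 30 °C for 60 or 75 min under initial-rate conditions. Filter capture and phosphorimager readout; apparent Ki fitted to competitive or tight-binding competitive inhibition.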

[3] = target: human CDK4 and genetically truncated (1-264) cyclin D3 (Homo sapiens, UniProt P11802); test: Inhibition of CDK4/Cyclin D Retinoblastoma Kinase Activity; type: biochemical; details: 0.03 μM compound, Table 4
Sequence of human CDK4 and genetically truncated (1-264) cyclin D3 (P11802 whole entry, the tested form may be a part): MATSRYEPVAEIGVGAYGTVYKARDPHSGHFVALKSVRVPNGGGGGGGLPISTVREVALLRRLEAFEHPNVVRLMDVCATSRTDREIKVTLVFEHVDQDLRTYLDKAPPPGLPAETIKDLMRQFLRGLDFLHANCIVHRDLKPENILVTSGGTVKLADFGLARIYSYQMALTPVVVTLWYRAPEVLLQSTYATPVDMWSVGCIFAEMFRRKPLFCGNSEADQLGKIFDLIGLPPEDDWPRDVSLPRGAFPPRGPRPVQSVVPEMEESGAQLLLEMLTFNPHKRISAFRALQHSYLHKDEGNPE
Sequence of human CDK4 and genetically truncated (1-264) cyclin D3 (P30281 1-264 partner): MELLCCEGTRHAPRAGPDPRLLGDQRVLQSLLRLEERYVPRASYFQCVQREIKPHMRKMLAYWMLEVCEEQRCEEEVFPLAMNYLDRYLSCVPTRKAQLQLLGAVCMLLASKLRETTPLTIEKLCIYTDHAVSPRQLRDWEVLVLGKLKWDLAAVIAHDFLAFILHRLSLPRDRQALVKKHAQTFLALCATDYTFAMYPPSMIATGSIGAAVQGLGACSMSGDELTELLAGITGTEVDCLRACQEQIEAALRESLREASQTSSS
Method in brief: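 Human CDK4/truncated cyclin D3 (1-264) complex from baculovirus-infected insect cells, 5 nM, phosphorylating Rb fragment (residues 386-928, His-tagged) with 25 μM [32/33P]ATP in HEPES pH 7.4, MgCl2, 2% DMSO at 30° C. for 20 min (60 min for tight binders). Filter-captured radioactivity by phosphorimager; apparent Ki from competitive or tight-binding fits.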

| SMILES | HCT-116 % Inhibition at 0.1 μM [1] | HCT-116 % Inhibition at 0.25 μM [1] | CDK2 % Inhibition at 0.03 μM [2] | CDK4 % Inhibition at 0.03 μM [3] | HCT-116 % Inhibition at 0.25 μM ([1]; 0.25 µM) | CDK2 % Inhibition at 0.03 μM ([2]; 0.03 µM) | CDK4 % Inhibition at 0.03 μM ([3]; 0.03 µM) |
| --- | --- | --- | --- | --- | --- | --- | --- |
| Nc1nc(NC2CCN(C(=O)c3ccccc3)CC2)sc1C(=O)c1c(F)cccc1F [Example Q9] | 0% | 36% | 13% | 52% |  |  |  |
| Nc1nc(NC2CCN(C(=O)c3ccccc3Br)CC2)sc1C(=O)c1c(F)cccc1F [Example Q10] | 1% | 42% | 23% | 57% |  |  |  |
| Nc1nc(NC2CCN(C(=O)c3ccccc3F)CC2)sc1C(=O)c1c(F)cccc1F [Example Q11] | 7% | 43% | 30% | 57% |  |  |  |
| Nc1nc(NC2CCN(C(=O)c3c(F)cccc3F)CC2)sc1C(=O)c1c(F)cccc1F [Example Q12] | 3% | 46% | −20% | 22% |  |  |  |
| Nc1nc(NC2CCN(C(=O)c3ccccc3Cl)CC2)sc1C(=O)c1c(F)cccc1F [Example Q13] | 5% | 43% | 13% | 48% |  |  |  |
| CC(=O)Oc1ccccc1C(=O)N1CCC(Nc2nc(N)c(C(=O)c3c(F)cccc3F)s2)CC1 [Example Q14] | 15% | 45% | 59% | 80% |  |  |  |
| COc1ccccc1C(=O)N1CCC(Nc2nc(N)c(C(=O)c3c(F)cccc3F)s2)CC1 [Example Q15] | 9% | 45% | 25% | 52% |  |  |  |
| Nc1nc(NC2CCN(C(=O)c3ccccc3C(F)(F)F)CC2)sc1C(=O)c1c(F)cccc1F [Example Q16] | 11% | 50% | −12% | 19% |  |  |  |
| Cc1ccccc1C(=O)N1CCC(Nc2nc(N)c(C(=O)c3c(F)cccc3F)s2)CC1 [Example Q17] | 2% | 34% | −11% | 45% |  |  |  |
| Nc1nc(NC2CCN(C(=O)c3cccc(Br)c3)CC2)sc1C(=O)c1c(F)cccc1F [Example Q18] | 59% | 92% | 44% | 73% |  |  |  |
| Nc1nc(NC2CCN(C(=O)c3cccc(Cl)c3)CC2)sc1C(=O)c1c(F)cccc1F [Example Q19] | 32% | 83% | 21% | 59% |  |  |  |
| Nc1nc(NC2CCN(C(=O)c3ccc(Cl)c(Cl)c3)CC2)sc1C(=O)c1c(F)cccc1F [Example Q20] | 28% | 69% | 33% | 74% |  |  |  |
| COc1ccc(C(=O)N2CCC(Nc3nc(N)c(C(=O)c4c(F)cccc4F)s3)CC2)cc1OC [Example Q21] | 16% | 51% | −23% | 14% |  |  |  |
| COc1cc(C(=O)N2CCC(Nc3nc(N)c(C(=O)c4c(F)cccc4F)s3)CC2)cc(OC)c1OC [Example Q22] | 16% | 48% | 24% | 73% |  |  |  |
| COc1cc(OC)cc(C(=O)N2CCC(Nc3nc(N)c(C(=O)c4c(F)cccc4F)s3)CC2)c1 [Example Q23] | 10% | 42% | 20% | 56% |  |  |  |
| Nc1nc(NC2CCN(C(=O)c3cccc(C(F)(F)F)c3)CC2)sc1C(=O)c1c(F)cccc1F [Example Q24] | 36% | 71% | 31% | 65% |  |  |  |
| Cc1cccc(C(=O)N2CCC(Nc3nc(N)c(C(=O)c4c(F)cccc4F)s3)CC2)c1 [Example Q25] | 31% | 85% | 30% | 60% |  |  |  |
| Nc1nc(NC2CCN(C(=O)c3ccc(F)cc3)CC2)sc1C(=O)c1c(F)cccc1F [Example Q26] | 3% | 42% | 18% | 60% |  |  |  |
| Nc1nc(NC2CCN(C(=O)c3ccc(Cl)cc3)CC2)sc1C(=O)c1c(F)cccc1F [Example Q27] | 4% | 40% | 32% | 76% |  |  |  |
| COc1ccc(C(=O)N2CCC(Nc3nc(N)c(C(=O)c4c(F)cccc4F)s3)CC2)cc1 [Example Q28] | 6% | 41% | 53% | 82% |  |  |  |
| CCCCOc1ccc(C(=O)N2CCC(Nc3nc(N)c(C(=O)c4c(F)cccc4F)s3)CC2)cc1 [Example Q29] | 7% | 50% | 21% | 60% |  |  |  |
| CCCCCCOc1ccc(C(=O)N2CCC(Nc3nc(N)c(C(=O)c4c(F)cccc4F)s3)CC2)cc1 [Example Q30] | 8% |  |  |  | 47% | −4% | 42% |
| CCCCCCOc1ccc(C(=O)N2CCC(Nc3nc(N)c(C(=O)c4c(F)cccc4F)s3)CC2)cc1 [Example Q31] | 8% |  |  |  | 41% | −2% | 35% |
